Read-outs that look alike come from different tables or passages of the source.
Tests used:
B-Raf kinase = target: T1, B-Raf kinase (Homo sapiens, UniProt P15056); assay: Biochemical Assay for B-Raf (coupled pyruvate kinase/lactate dehydrogenase assay)
T1 construct: GST (N); purchased Sigma

C-Raf kinase = target: T2, C-Raf kinase (Homo sapiens, UniProt P04049, Y340D/Y341D); assay: Biochemical Assay for C-Raf (coupled pyruvate kinase/lactate dehydrogenase assay)
T2 construct: C-Raf residues 306-end; Y340D, Y341D with N-; GST (N); purchased Eurofins
T2 sequence (P04049 307-648 Y340D/Y341D): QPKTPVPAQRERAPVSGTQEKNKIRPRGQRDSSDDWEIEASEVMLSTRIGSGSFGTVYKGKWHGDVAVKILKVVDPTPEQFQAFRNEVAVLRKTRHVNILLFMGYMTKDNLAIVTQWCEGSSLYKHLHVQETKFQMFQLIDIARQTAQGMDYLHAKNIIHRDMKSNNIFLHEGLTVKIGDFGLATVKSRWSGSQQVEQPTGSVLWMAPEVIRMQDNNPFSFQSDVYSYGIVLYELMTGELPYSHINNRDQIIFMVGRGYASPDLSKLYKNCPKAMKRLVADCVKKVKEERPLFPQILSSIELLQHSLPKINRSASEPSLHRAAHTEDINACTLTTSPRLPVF

MiaPaca-2 cells = assay: MiaPaca-2 Cell Proliferation Assay; type: cell-based; conditions: Homo sapiens, MIA PaCa-2
Description: MiaPaca-2 cells (catalog #CRL-1420) are obtained from the American Type Culture Collect (ATTC, Manassas, VA). Briefly, cells were grown in DMEM supplemented with 10% characterized fetal bovine serum (Invitrogen, Carlsbad, CA), 2.5% New Zealand sourced horse serum and 1% Penicillin/Streptomycin/L-Glutamine at 37° C., 5% CO2, and 95% humidity. Cells are expanded until reaching 70-95% confluency at which point they are sub-cultured or harvested for assay use. For assays completed in 96-well plates, a serial dilution of test compound is dispensed into a 96-well black clear bottom plate in triplicate. Three thousand cells are added per well in 200 μL complete growth medium in the 96-well plate. Plates are incubated for 67 to 72 h at 37° C., 5% CO2, and 95% humidity. At the end of the incubation, 40 μL of a […] solution of resazurin (Sigma, St. Louis, MO) in PBS is added to each well of the plate and plates are incubated for an additional 5 to 6 hours at 37° C., 5% CO2, and 95% humidity. For 384-well assays, a threefold, 8-point serial dilution of compound was spotted column wise into a 384 well black, clear bottom, tissue culture treated plate using the Beckman Coulter Echo 650. Likewise, a threefold, 8-point serial dilution of cobimetinib was spotted row wise into the 384 well black, clear bottom plate containing compound. DMSO concentration was constant across all wells at 0.4%. Seven hundred fifty cells are added per well in 50 μL complete growth medium in each 384-well plate. Plates are incubated for 67 to 72 h at 37° C., 5% CO2, and 95% humidity. At the end of the incubation, 10 μL of a 440 μM solution of resazurin (Sigma, St. Louis, MO) in PBS is added to each well of the plate and plates are incubated for an additional 4 to 6 h at 37° C., 5% CO2, and 95% humidity. Plates are read on a Synergy2 or equivalent reader (Biotek, Winooski VT) using an excitation of 540 nm and an emission of 600 nm. Data is analyzed using Prism software (Graphpad, San Diego, CA) to calculate IC50 values.

HCT-116 cells = assay: HCT-116 Cell Proliferation Assay; type: cell-based; conditions: Homo sapiens
Description: HCT-116 cells (catalog #CCL-247) are obtained from the American Type Culture Collect (ATCC, Manassas, VA). Briefly, cells are grown in McCoy's 5A supplemented with 10% characterized fetal bovine serum (Invitrogen, Carlsbad, CA) and 1% Penicillin/Streptomycin/L-Glutamine at 37° C., 5% CO2, and 95% humidity. Cells are expanded until reaching 70-95% confluency at which point they are sub-cultured or harvested for assay use. A serial dilution of test compound is dispensed into a 384-well black clear bottom plate in triplicate. 375 cells are added per well in 50 μL complete growth medium in the 384-well plate. Plates are incubated for 67 to 72 h at 37° C., 5% CO2, and 95% humidity. At the end of the incubation, 40 μL of a […] solution of resazurin (Sigma, St. Louis, MO) in PBS is added to each well of the plate and plates are incubated for an additional 4 to 5 hours at 37° C., 5% CO2, and 95% humidity. Plates are read on a Synergy2 or equivalent reader (Biotek, Winooski, VT) using an excitation of 540 nm and an emission of 600 nm. Data is analyzed using Prism software (Graphpad, San Diego, CA) to calculate IC50 values.

HPAF-II cells = assay: HPAF-II Cell Proliferation Assay; type: cell-based; conditions: Homo sapiens, HPAF-II; Table 4; read-out: HPAF-II IC50
Description: HPAF-II cells (catalog #CRL-1997) are obtained from the American Type Culture Collect (ATCC, Manassas, VA). Briefly, cells are grown in Minimum Essential Media supplemented with 10% characterized fetal bovine serum (Invitrogen, Carlsbad, CA) and 1% Penicillin/Streptomycin/L-Glutamine at 37° C., 5% CO2, and 95% humidity. Cells are expanded until reaching 70-95% confluency at which point they are sub-cultured or harvested for assay use. A serial dilution of test compound is dispensed into a 384-well black clear bottom plate in triplicate. 750 cells are added per well in 50 μL complete growth medium in the 384-well plate. Plates are incubated for 115 to 120 h at 37° C., 5% CO2, and 95% humidity. At the end of the incubation, 40 μL of a […] solution of resazurin (Sigma, St. Louis, MO) in PBS is added to each well of the plate and plates are incubated for an additional 18 to 24 h at 37° C., 5% CO2, and 95% humidity. Plates are read on a Synergy2 or equivalent reader (Biotek, Winooski, VT) using an excitation of 540 nm and an emission of 600 nm. Data is analyzed using Prism software (Graphpad, San Diego, CA) to calculate IC50 values.

[1] = Table 1, inhibition of biochemical activity, read-out: BRAF
[2] = Table 1, inhibition of biochemical activity, read-out: CRAF
[3] = Table 2, inhibition of cell proliferation, read-out: MiaPaca-2
[4] = Table 2, inhibition of cell proliferation, read-out: HCT-116

T1 sequence (P15056 416-766): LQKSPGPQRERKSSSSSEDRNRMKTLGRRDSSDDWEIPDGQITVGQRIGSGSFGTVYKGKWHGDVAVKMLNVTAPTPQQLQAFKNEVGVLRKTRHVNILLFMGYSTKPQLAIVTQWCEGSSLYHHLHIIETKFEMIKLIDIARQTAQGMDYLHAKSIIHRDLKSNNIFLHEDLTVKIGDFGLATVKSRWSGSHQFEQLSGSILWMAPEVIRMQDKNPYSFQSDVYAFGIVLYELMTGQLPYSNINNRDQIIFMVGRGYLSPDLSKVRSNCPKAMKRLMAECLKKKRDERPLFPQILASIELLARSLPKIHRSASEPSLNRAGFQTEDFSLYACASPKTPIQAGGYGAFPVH

Row | SMILES | IC50 (B-Raf kinase; [1]) [nM] | IC50 (C-Raf kinase; [2]) [nM] | IC50 (MiaPaca-2 cells; [3]) [nM] | IC50 (HCT-116 cells; [4]) [nM] | other results
1 | COCC(=O)Nc1cc(-c2cc(-c3cc(NC(=O)Nc4ccc(C(F)(F)F)nc4)ccc3C)cn(C)c2=O)ccn1 [Example 3, 2-methoxy-N-(1-methyl-5-(2-methyl-5-(3-(6-(trifluoromethyl)pyridin-3-yl)ureido)phenyl)-2-oxo-1,2-dihydro-[3,4′-bipyridin]-2′-yl)acetamide] | 100 to 500 | < 100 | 100 to 500 | – | –
2 | CC(=O)Nc1cc(-c2cc(-c3cc(NC(=O)Nc4ccc(C(F)(F)F)nc4)ccc3C)nn(C)c2=O)ccn1 [Example 8] | 1000 to 10000 | 1000 to 10000 | 1000 to 10000 | 1000 to 10000 | –
3 | Cc1ccc(NC(=O)Nc2ccc(C(F)(F)F)nc2)cc1-c1cc(-c2ccnc(NC(=O)CN(C)C)c2)c(=O)n(C)c1 [Example 11] | 100 to 500 | 100 to 500 | 500 to 1000 | 500 to 1000 | –
4 | Cc1ccc(NC(=O)Nc2ccc(C)c(-c3cc(OCCO)nc(N4CCOCC4)c3)c2)cn1 [Example 23, 1-(3-(2-(2-hydroxyethoxy)-6-morpholinopyridin-4-yl)-4-methylphenyl)-3-(6-methylpyridin-3-yl)urea] | 100 to 500 | < 100 | < 100 | – | –
5 | Cc1ccc(NC(=O)Nc2cnc(C(F)(F)F)nc2)cc1-c1cc(OCCO)nc(N2CCOCC2)c1 [Example 24, 1-(3-(2-(2-hydroxyethoxy)-6-morpholinopyridin-4-yl)-4-methylphenyl)-3-(2-(trifluoromethyl)pyrimidin-5-yl)urea] | 100 to 500 | < 100 | < 100 | – | IC50 (B-Raf kinase; Table 3, read-out: BRAF IC50): 100 to 500 nM; IC50 (C-Raf kinase; Table 3, read-out: CRAF IC50): 100 to 500 nM; IC50 (HCT-116 cells; HCT-116, Table 3, read-out: HCT-116 IC50): < 100 nM; IC50 (MiaPaca-2 cells; Table 3, read-out: MiaPaca-2 IC50): < 100 nM
6 | Cc1ccc(NC(=O)Nc2ccc(C(F)(F)F)nc2)cc1-c1cc(OC2CCNCC2)nc(N2CCOCC2)c1 [Example 25, 1-(4-methyl-3-(2-morpholino-6-(piperidin-4-yloxy)pyridin-4-yl)phenyl)-3-(6-(trifluoromethyl)pyridin-3-yl)urea] | 100 to 500 | < 100 | 100 to 500 | 500 to 1000 | –
7 | Cc1ncc(NC(=O)Nc2ccc(C(F)(F)F)nc2)cc1-c1cc(OCCO)nc(N2CCOCC2)c1 [Example 26] | 1000 to 10000 | < 100 | < 100 | – | –
8 | Cc1cc(F)c(NC(=O)Nc2ccc(C(F)(F)F)nc2)cc1-c1cc(OCCN(C)C)nc(N2CCOCC2)c1 [Example 27] | 500 to 1000 | 100 to 500 | 1000 to 10000 | – | –
9 | Cc1ccc(NC(=O)Nc2cccnc2)cc1-c1cc(OCCO)nc(N2CCOCC2)c1 [Example 28] | 500 to 1000 | < 100 | 100 to 500 | 1000 to 10000 | –
10 | Cc1ccc(NC(=O)Nc2ccc(C(F)(F)F)nc2)cc1-c1cc(-c2cnn(C)c2)nc(N2CCOCC2)c1 [Example 29] | < 100 | < 100 | < 100 | – | –
11 | Cc1ccc(NC(=O)Nc2ccc(C(F)(F)F)nc2)cc1-c1cc(OCCN(C)C)nc(N2CCOCC2)c1 [Example 30] | 100 to 500 | < 100 | < 100 | – | –
12 | Cc1ccc(NC(=O)Nc2ccc(C(F)(F)F)nc2)cc1-c1cc(N2CCOCC2)nc(N2CCN(C)CC2)c1 [Example 31] | 500 to 1000 | 100 to 500 | 100 to 500 | – | –
13 | Cc1ccc(NC(=O)Nc2ccc(C(F)(F)F)nc2)cc1-c1cc(N2CCOCC2)nc(N2CCOCC2)c1 [Example 32] | < 100 | < 100 | < 100 | – | –
14 | Cc1ccc(NC(=O)Nc2ccc(C(F)(F)F)nc2)cc1-c1cc(OCC2COC2)nc(N2CCOCC2)c1 [Example 33] | 100 to 500 | < 100 | < 100 | – | –
15 | Cc1ccc(NC(=O)Nc2ccc(C(F)(F)F)nc2)cc1-c1cc(F)nc(N2CCOCC2)c1 [Example 35] | 1000 to 10000 | 1000 to 10000 | – | – | –
16 | Cc1ccc(NC(=O)Nc2ccc(C(F)(F)F)nc2)cc1-c1cc(OCCO)nc(N2CCOCC2)c1 [Example 37] | 100 to 500 | < 100 | < 100 | < 100 | –
17 | Cc1ccc(NC(=O)Nc2ccc(C(F)F)nc2)cc1-c1cc(OCCO)nc(N2CCOCC2)c1 [Example 38] | – | – | < 100 | – | –
18 | Cc1ccc(NC(=O)Nc2ccc(C(F)(F)F)nc2)cc1-c1cc(OCCO)nc(-c2cn[nH]c2)c1 [Example 42] | < 100 | < 100 | < 100 | – | –
19 | CC(=O)Nc1cc(-c2cc(-c3cc(NC(=O)NC4CCC(F)(F)CC4)c(F)cc3C)cc(OCCO)n2)ccn1 [reference compound] | – | – | – | – | IC50 (HCT-116 cells; HCT-116, Table 4, read-out: HCT-116 IC50): 500 to 1000 nM; IC50 (HPAF-II cells): 500 to 1000 nM

The next lines start with results.

Row | IC50 (B-Raf kinase; [1]) [nM] | IC50 (C-Raf kinase; [2]) [nM] | IC50 (MiaPaca-2 cells; [3]) [nM] | IC50 (HCT-116 cells; [4]) [nM] | SMILES | other results
20 | < 100 | < 100 | < 100 | – | CC(=O)Nc1cc(-c2cc(-c3cc(NC(=O)Nc4ccc(C(F)(F)F)nc4)ccc3C)cc(OCCO)n2)ccn1 [Example 5] | –
21 | < 100 | < 100 | 500 to 1000 | 1000 to 10000 | CC(=O)Nc1cc(-c2cc(-c3cc(NC(=O)Nc4ccc(C(F)(F)F)nc4)cnc3C)ccn2)ccn1 [Example 6] | –
22 | < 100 | < 100 | 1000 to 10000 | 1000 to 10000 | CC(=O)Nc1cc(-c2cc(-c3cc(NC(=O)Nc4ccc(C(F)(F)F)nc4)ccc3C)cc(=O)n2C)ccn1 [Example 7] | –
23 | < 100 | < 100 | 100 to 500 | 100 to 500 | CC(=O)Nc1cc(-c2cncc(-c3cc(NC(=O)Nc4ccc(C(F)(F)F)nc4)ccc3C)n2)ccn1 [Example 12] | –
24 | < 100 | < 100 | 500 to 1000 | 500 to 1000 | COCC(=O)Nc1cc(-c2cncc(-c3cc(NC(=O)Nc4ccc(C(F)(F)F)nc4)ccc3C)n2)ccn1 [Example 13] | –
25 | < 100 | < 100 | 1000 to 10000 | 1000 to 10000 | Cc1ccc(NC(=O)Nc2ccc(C(F)(F)F)nc2)cc1-c1cncc(-c2ccnc(NC(=O)CC#N)c2)n1 [Example 14] | –
26 | < 100 | < 100 | 500 to 1000 | – | Cc1ccc(NC(=O)Nc2ccc(C(F)(F)F)nc2)cc1-c1cncc(-c2cc(NC(=O)C3CC3)ncn2)c1 [Example 15] | –
27 | < 100 | < 100 | 100 to 500 | – | Cc1ccc(NC(=O)Nc2ccc(C(F)(F)F)nc2)cc1-c1cncc(-c2cc(N)ncn2)c1 [Example 16] | –
28 | < 100 | < 100 | 100 to 500 | – | CNC(=O)c1cc(-c2cncc(-c3cc(NC(=O)Nc4ccc(C(F)(F)F)nc4)ccc3C)c2)ncn1 [Example 21] | –

From patent US20260176279A1, “DUAL RAF AND TUBULIN INHIBITORS AND METHODS OF USE THEREOF” (Deciphera Pharmaceuticals, LLC, priority 2023, published 2026)
